# How the values were obtained:
# Assay type in all cases: in vivo
# [1] = tested on: water seeded rice seedlings (Oryza sativa cv. ‘Japonica-M202’); test: Test E flooded paddy water application; conditions: Flood, 21 days, scale 0 to 100 (0 no effect, 100 complete control)
# How it was run: (§1)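 Weeds sown in sterilized Tama silt loam (2.6% organic matter), greenhouse 29.5/26.7° C, 16-h photoperiod; at 2.0–2.5-leaf stage pots flooded to 3 cm and compound added to paddy water. Visual rating vs untreated controls after 21 days, 0 (no effect) to 100 (complete control).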
# [2] = tested on: bearded (brdd.) sprangletop (Leptochloa fusca ssp. fascicularis); test: Test E flooded paddy water application; conditions: Flood, 21 days, scale 0 to 100 (0 no effect, 100 complete control)
# How it was run: as §1
# [3] = tested on: purple redstem (Ammannia coccinea); test: Test E flooded paddy water application; conditions: Flood, 21 days, scale 0 to 100 (0 no effect, 100 complete control)
# How it was run: as §1
# [4] = tested on: early watergrass (Echinochloa oryzoides); test: Test E flooded paddy water application; conditions: Flood, 21 days, scale 0 to 100 (0 no effect, 100 complete control)
# How it was run: as §1
# [5] = tested on: junglerice (Echinochloa colona); test: Test E flooded paddy water application; conditions: Flood, 21 days, scale 0 to 100 (0 no effect, 100 complete control)
# How it was run: as §1
# [6] = tested on: late watergrass (Echinochloa oryzicola); test: Test E flooded paddy water application; conditions: Flood, 21 days, scale 0 to 100 (0 no effect, 100 complete control)
# How it was run: as §1
# [7] = tested on: ducksalad (Heteranthera limosa); test: Test E flooded paddy water application; conditions: Flood, 21 days, scale 0 to 100 (0 no effect, 100 complete control)
# How it was run: as §1
# [8] = tested on: rice flatsedge (Cyperus iria); test: Test E flooded paddy water application; conditions: Flood, 21 days, scale 0 to 100 (0 no effect, 100 complete control)
# How it was run: as §1
# [9] = tested on: barnyardgrass (Echinochloa crus-galli); test: Test E flooded paddy water application; conditions: Flood, 21 days, scale 0 to 100 (0 no effect, 100 complete control)
# How it was run: as §1
# [10] = tested on: smallflower umbrella sedge (Cyperus difformis); test: Test E flooded paddy water application; conditions: Flood, 21 days, scale 0 to 100 (0 no effect, 100 complete control)
# How it was run: as §1
# [11] = tested on: transplanted rice seedlings (Oryza sativa cv. ‘Japonica-M202’); test: Test E flooded paddy water application; conditions: Flood, 21 days, scale 0 to 100 (0 no effect, 100 complete control)
# How it was run: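 Greenhouse pots of Tama silt loam with weeds and rice at 2.0–2.5-leaf stage, flooded to 3 cm; compounds applied directly into paddy water, depth maintained. Visual rating versus untreated controls after 21 days, 0 (no effect) to 100 (complete control); 29.5/26.7 °C, 16-h photoperiod.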
# [12] = tested on: redroot pigweed (Amaranthus retroflexus); test: Test A pre/postemergence
# How it was run: (§2)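 Seeds sown in loam–sand blend received a preemergence directed soil spray of test chemical in non-phytotoxic solvent with surfactant; same-formulation postemergence spray given concurrently to plants 2–10 cm tall at 1- to 2-leaf stage. Greenhouse ~ten days, then visual injury rating versus untreated controls, 0 (no effect) to 100 (complete control).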
# [13] = tested on: velvetleaf (Abutilon theophrasti); test: Test A pre/postemergence
# How it was run: as §2
# [14] = tested on: morningglory (Ipomoea spp.); test: Test A pre/postemergence
# How it was run: as §2
# [15] = tested on: barnyardgrass (Echinochloa crus-galli); test: Test A pre/postemergence
# How it was run: as §2
# [16] = tested on: crabgrass (Digitaria sanguinalis); test: Test A pre/postemergence
# How it was run: as §2
# [17] = tested on: giant foxtail (Setaria faberi); test: Test A pre/postemergence
# How it was run: as §2
# [18] = Postemergence, 125 g ai/ha, 0 to 100 scale (0 no effect, 100 complete control)
# [19] = Postemergence, 500 g ai/ha, 0 to 100 scale (0 no effect, 100 complete control)
# [20] = Preemergence, 125 g ai/ha, 0 to 100 scale where 0 is no effect and 100 is complete control, approximately ten days
# [21] = Preemergence, 500 g ai/ha, 0 to 100 scale where 0 is no effect and 100 is complete control, approximately ten days
smiles,measurement,setting,value
CCOC(=O)c1nc(-c2ccc(Cl)c(Cl)c2)nc(N)c1Cl [Compound 73],"Rice, Water Seeded plant response rating",[1]; 32 g ai/ha,0
same,"Rice, Water Seeded plant response rating",[1]; 64 g ai/ha,0
same,"Rice, Water Seeded plant response rating",[1]; 125 g ai/ha,0
same,"Rice, Water Seeded plant response rating",[1]; 250 g ai/ha,0
same,"Plant response rating, Rice, Water Seeded",[1]; 16 g ai/ha,0
same,"Sprangletop, Brdd. plant response rating",[2]; 32 g ai/ha,0
same,"Sprangletop, Brdd. plant response rating",[2]; 64 g ai/ha,0
same,"Sprangletop, Brdd. plant response rating",[2]; 125 g ai/ha,50
same,"Sprangletop, Brdd. plant response rating",[2]; 250 g ai/ha,70
same,"Plant response rating, Sprangletop, Brdd.",[2]; 16 g ai/ha,0
same,Redstem plant response rating,[3]; 32 g ai/ha,0
same,Redstem plant response rating,[3]; 64 g ai/ha,90
same,Redstem plant response rating,[3]; 125 g ai/ha,100
same,Redstem plant response rating,[3]; 250 g ai/ha,100
same,"Plant response rating, Redstem",[3]; 16 g ai/ha,0
same,"Watergrass, Early plant response rating",[4]; 32 g ai/ha,0
same,"Watergrass, Early plant response rating",[4]; 64 g ai/ha,0
same,"Watergrass, Early plant response rating",[4]; 125 g ai/ha,0
same,"Watergrass, Early plant response rating",[4]; 250 g ai/ha,0
same,"Plant response rating, Watergrass, Early",[4]; 16 g ai/ha,0
same,Junglerice plant response rating,[5]; 32 g ai/ha,0
same,Junglerice plant response rating,[5]; 64 g ai/ha,0
same,Junglerice plant response rating,[5]; 125 g ai/ha,0
same,Junglerice plant response rating,[5]; 250 g ai/ha,0
same,"Plant response rating, Junglerice",[5]; 16 g ai/ha,0
same,"Watergrass, Late plant response rating",[6]; 32 g ai/ha,0
same,"Watergrass, Late plant response rating",[6]; 64 g ai/ha,0
same,"Watergrass, Late plant response rating",[6]; 125 g ai/ha,0
same,"Watergrass, Late plant response rating",[6]; 250 g ai/ha,20
same,"Plant response rating, Watergrass, Late",[6]; 16 g ai/ha,0
same,Ducksalad plant response rating,[7]; 32 g ai/ha,100
same,Ducksalad plant response rating,[7]; 64 g ai/ha,100
same,Ducksalad plant response rating,[7]; 125 g ai/ha,100
same,Ducksalad plant response rating,[7]; 250 g ai/ha,100
same,"Plant response rating, Ducksalad",[7]; 16 g ai/ha,75
same,"Flatsedge, Rice plant response rating",[8]; 32 g ai/ha,0
same,"Flatsedge, Rice plant response rating",[8]; 64 g ai/ha,0
same,"Flatsedge, Rice plant response rating",[8]; 250 g ai/ha,45
same,"Plant response rating, Flatsedge, Rice",[8]; 16 g ai/ha,0
same,Barnyardgrass plant response rating,[9]; 64 g ai/ha,0
same,Barnyardgrass plant response rating,[9]; 125 g ai/ha,90
same,Barnyardgrass plant response rating,[9]; 250 g ai/ha,100
same,"Plant response rating, Barnyardgrass",[9]; 16 g ai/ha,0
same,"Sedge, Umbrella plant response rating",[10]; 32 g ai/ha,0
same,"Sedge, Umbrella plant response rating",[10]; 64 g ai/ha,0
same,"Sedge, Umbrella plant response rating",[10]; 125 g ai/ha,35
same,"Sedge, Umbrella plant response rating",[10]; 250 g ai/ha,85
same,"Plant response rating, Sedge, Umbrella",[10]; 16 g ai/ha,0
same,"Rice, Transplanted plant response rating",[11]; 32 g ai/ha,0
same,"Rice, Transplanted plant response rating",[11]; 64 g ai/ha,0
same,"Rice, Transplanted plant response rating",[11]; 125 g ai/ha,0
same,"Rice, Transplanted plant response rating",[11]; 250 g ai/ha,0
same,"Plant response rating, Rice, Transplanted",[11]; 16 g ai/ha,0
same,"Plant response rating, Pigweed",[12]; [18],75
same,"Plant response rating, Pigweed",[12]; [19],80
same,"Plant response rating, Pigweed",[12]; [20],15
same,"Plant response rating, Pigweed",[12]; [21],60
same,"Plant response rating, Velvetleaf",[13]; [18],70
same,"Plant response rating, Velvetleaf",[13]; [19],75
same,"Plant response rating, Velvetleaf",[13]; [20],35
same,"Plant response rating, Velvetleaf",[13]; [21],40
same,"Plant response rating, Morningglory",[14]; [18],50
same,"Plant response rating, Morningglory",[14]; [19],65
same,"Plant response rating, Morningglory",[14]; [20],0
same,"Plant response rating, Morningglory",[14]; [21],0
same,"Plant response rating, Barnyardgrass",[15]; [18],0
same,"Plant response rating, Barnyardgrass",[15]; [19],5
same,"Plant response rating, Barnyardgrass",[15]; [20],5
same,"Plant response rating, Barnyardgrass",[15]; [21],30
same,"Plant response rating, Crabgrass",[16]; [18],15
same,"Plant response rating, Crabgrass",[16]; [19],35
same,"Plant response rating, Crabgrass",[16]; [20],5
same,"Plant response rating, Crabgrass",[16]; [21],35
same,"Plant response rating, Foxtail, Giant",[17]; [18],15
same,"Plant response rating, Foxtail, Giant",[17]; [19],45
same,"Plant response rating, Foxtail, Giant",[17]; [20],0
same,"Plant response rating, Foxtail, Giant",[17]; [21],15

# — patent US8802597B2, “Herbicidal pyrimidines” (E I du Pont de Nemours and Company, priority 2003, dated 2014)
